Measurements published in the supplement of paper PMC4862054.
Where “and” joins values, the source holds several entries; their conditions need not be identical. Identical values can stand only once.

Legend:
Conditions in all cases: incubation time: 72 h
[1] = test system: DU-4475; test: normalised viability (% of control), CellTiter-Blue; higher = more viable cells (100 = DMSO, 0 = benzethonium chloride kill control)
Experimental: (§1)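 DSRT, CellTiter-Blue viability, 72 h incubation. Signal is normalised to DMSO and benzethonium chloride controls. Value is the normalised response at dose 1.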

[2] = test system: HCC1937; test: as above
Experimental: as §1

[3] = test system: HDQ-P1; test: as above
Experimental: as §1

[4] = test system: CAL-85-1; test: as above
Experimental: as §1

[5] = test system: SK-BR-3; test: as above
Experimental: as §1

[6] = test system: MDA-MB-231; test: as above
Experimental: as §1

[7] = test system: CAL-120; test: as above
Experimental: as §1

[8] = test system: Hs578T; test: as above
Experimental: as §1

[9] = test system: MDA-MB-436; test: as above
Experimental: as §1

[10] = test system: CAL-148; test: as above
Experimental: as §1

[11] = test system: MFM-223; test: as above
Experimental: as §1

[12] = test system: BT-474; test: as above
Experimental: as §1

[13] = test system: MDA-MB-468; test: as above
Experimental: as §1

[14] = test system: HCC1143; test: as above
Experimental: as §1

[15] = test system: CAL-51; test: as above
Experimental: as §1

[16] = test system: HCC1599; test: as above
Experimental: as §1

[17] = test system: BT-549; test: as above
Experimental: as §1

[18] = test system: MDA-MB-453; test: as above
Experimental: as §1

[19] = test system: DU-4475; test: normalised response (% of control), CellTiter-Glo; higher = more viable cells (100 = DMSO, 0 = benzethonium chloride kill control)
Procedure, shortened: (§2)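 Breast cancer cell lines, seeded at 20 µl suspension per well, were incubated for 72 h in 384-well plates containing compound at 5 concentrations. These concentrations rose in 10-fold steps over a 10,000-fold range set for each compound. CellTox Green fluorescence (485/520 nm) was read, then CellTiter-Glo luminescence after 10 min at room temperature, and each plate was normalised to 0.1 % DMSO (100) and a positive kill control (0). Values are normalised signals, each at one concentration.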

[20] = test system: HCC1937; test: as above
Procedure, shortened: as §2

[21] = test system: HDQ-P1; test: as above
Procedure, shortened: as §2

[22] = test system: CAL-85-1; test: as above
Procedure, shortened: as §2

[23] = test system: SK-BR-3; test: as above
Procedure, shortened: as §2

[24] = test system: MDA-MB-231; test: as above
Procedure, shortened: as §2

[25] = test system: CAL-120; test: as above
Procedure, shortened: as §2

[26] = test system: Hs578T; test: as above
Procedure, shortened: as §2

[27] = test system: MDA-MB-436; test: as above
Procedure, shortened: as §2

[28] = test system: CAL-148; test: as above
Procedure, shortened: as §2

[29] = test system: MCF-10A; test: as above
Procedure, shortened: as §2

[30] = test system: MFM-223; test: as above
Procedure, shortened: as §2

[31] = test system: BT-474; test: as above
Procedure, shortened: as §2

[32] = test system: MDA-MB-468; test: as above
Procedure, shortened: as §2

[33] = test system: HCC1143; test: as above
Procedure, shortened: as §2

[34] = test system: CAL-51; test: as above
Procedure, shortened: as §2

[35] = test system: HCC1599; test: as above
Procedure, shortened: as §2

[36] = test system: BT-549; test: as above
Procedure, shortened: as §2

[37] = test system: MDA-MB-453; test: as above
Procedure, shortened: as §2

SMILES | normalised viability [1] | normalised viability [2] | normalised viability [3] [%] | normalised viability [4] | normalised viability [5] | normalised viability [6] | normalised viability [7] | normalised viability [8] | normalised viability [9] | normalised viability [10] | normalised viability [11] | normalised viability [12] | normalised viability [13] | normalised viability [14] | normalised viability [15] | normalised viability [16] | normalised viability [17] | normalised viability [18] | normalised response [19] [%] | normalised response [20] [%] | normalised response [21] [%] | normalised response [22] [%] | normalised response [23] [%] | normalised response [24] [%] | normalised response [25] [%] | normalised response [26] [%] | normalised response [27] [%] | normalised response [28] [%] | normalised response [29] [%] | normalised response [30] [%] | normalised response [31] [%] | normalised response [32] [%] | normalised response [33] [%] | normalised response [34] [%] | normalised response [35] [%] | normalised response [36] [%] | normalised response [37] [%]
CO[C@H]1C[C@@H]2CC[C@@H](C)[C@@](O)(O2)C(=O)C(=O)N2CCCC[C@H]2C(=O)O[C@H]([C@H](C)C[C@@H]2CC[C@@H](O)[C@H](OC)C2)CC(=O)[C@H](C)/C=C(\C)[C@@H](O)[C@@H](OC)C(=O)[C@H](C)C[C@H](C)/C=C/C=C/C=C/1C [Sirolimus] (0.1 nM) | 94.8% | 85.3% | 100 | 93.9% | 90.8% | 85.2% | 102% | 74.4% | 103% | 105% | 80.3% | 84.2% | 94.3% | 105% | 78.8% | 91.9% | 88% | 99.4% | 98.9 | 103 | 100 | 96.1 | 91.1 | 96.9 | 94 | 102 | 94.3 | 101 | 108 | 100 | 101 | 93.8 | 102 | 96.3 | 108 | 89.9 | 95
CO[C@H](C(=O)[C@@H](O)[C@@H](C)O)[C@@H]1Cc2cc3cc(O[C@H]4C[C@@H](O[C@@H]5C[C@@H](O)[C@H](O)[C@@H](C)O5)[C@H](O)[C@@H](C)O4)c(C)c(O)c3c(O)c2C(=O)[C@H]1O[C@H]1C[C@@H](O[C@@H]2C[C@@H](O)[C@@H](O[C@@H]3C[C@](C)(O)[C@H](O)[C@@H](C)O3)[C@@H](C)O2)[C@H](O)[C@@H](C)O1 [Plicamycin] (1 nM) | 112% and 109% | 97.7% and 85% | 111 | 87.5% and 82.1% | 93.3% and 88.4% | 94% and 98.7% | 82.5% and 79.1% | 113% and 92.7% | 108% and 92.6% | 111% and 108% | 91.7% and 84.2% | 106% and 92.2% | 96.7% and 101% | 96.8% and 82.4% | 102% and 112% | 101% and 107% | 93% and 90.1% | 95.5% and 109% | 107 | 96.9 | 101 | 102 | 108 | 99.8 | 113 | 102 | 95 | 112 | 103 | 106 | 104 | 113 | 92.6 | 92.5 | 102 | 102 | 108
C[C@@H]1C[C@H]2[C@@H]3CCC4=CC(=O)C=C[C@]4(C)[C@@]3(F)[C@@H](O)C[C@]2(C)[C@@]1(O)C(=O)CO [Dexamethasone] (1 nM) | 96.6% | 82% | 92.9 | 107% | 111% | 126% | 82.3% | 93.5% | 85.8% | 109% | 91.6% | 119% | 106% | 91.8% | 95.6% | 84% | 157% | 94.3% | 100 | 98.9 | 104 | 102 | 95.6 | 112 | 94.3 | 107 | 115 | 89.2 | 90 | 94.7 | 107 | 94.6 | 96.2 | 116 | 100 | 102 | 102
CN1CCN(c2nc(C3=C(c4c[nH]c5ccccc45)C(=O)NC3=O)c3ccccc3n2)CC1 [Sotrastaurin] (1 nM) | 104% | 89.5% | 85.2 | 109% | 91.3% | 94.1% | 117% | 101% | 104% | 116% | 100% | 116% | 97.7% | 131% | 97% | 95.2% | 86.1% | 102% | 97.5 | 99 | 99.8 | 93 | 93.3 | 98 | 97 | 99.2 | 94 | 94.8 | 88 | 93 | 90.6 | 104 | 89.9 | 100 | 89.5 | 103 | 96.9
